Bridge positions count the residues as written; N and C are the ends. Square brackets hold non-standard residues; d marks the D form. Peptide text beside a SMILES is read from it. * marks the point of attachment. Ala(1H-tetrazol-5-yl) = N[C@@H](Cc1nnn[nH]1)C(=O)O; Phe(4-COOH) = N[C@@H](Cc1ccc(C(=O)O)cc1)C(=O)O; Bip = N[C@@H](Cc1ccc(-c2ccccc2)cc1)C(=O)O; Phe(3-Me) = Cc1cccc(C[C@H](N)C(=O)O)c1; h4Pal = N[C@@H](CCc1ccncc1)C(=O)O; 4Pal = N[C@@H](Cc1ccncc1)C(=O)O; Cit = NC(=O)NCCC[C@H](N)C(=O)O; Carboxymethyl = O=C(O)C*; NMeA = CN[C@@H](C)C(=O)O; Orn = NCCC[C@H](N)C(=O)O; Dab = NCC[C@H](N)C(=O)O; Dap = NC[C@H](N)C(=O)O
These compounds were tested against T1, PE-labeled human PD-L1-Ig binding to Jurkat cell line over-expressing human PD-1 (Jurkat-PD-1) (Homo sapiens, UniProt Q15116) (assay: Jurkat-PD-1 Cell Binding High-Content Screening Assay (CBA): Method 1). Settings: Jurkat HPDL1 PD1 IC50 (uM) (Method 1), Jurkat-hPD-1 cells, PE-labeled PD-L1-Ig 20 nM final.
T1 construct: expressed in transfected cells; host or cells: Jurkat
T1 sequence (Q15116 25-288): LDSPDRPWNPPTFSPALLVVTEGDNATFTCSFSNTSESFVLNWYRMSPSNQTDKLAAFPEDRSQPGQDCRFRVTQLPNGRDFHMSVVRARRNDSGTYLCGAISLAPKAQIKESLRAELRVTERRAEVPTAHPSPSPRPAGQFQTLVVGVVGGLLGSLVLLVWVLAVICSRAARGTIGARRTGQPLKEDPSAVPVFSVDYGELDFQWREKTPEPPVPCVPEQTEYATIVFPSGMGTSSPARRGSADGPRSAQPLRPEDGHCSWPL

Row | Compound | IC50 [µM]
1 | CC(C)C[C@@H]1NC(=O)[C@H](CCN)NC(=O)[C@@H](CC(C)C)NC(=O)[C@H](C)N(C)C(=O)[C@H](C(C)C)NC(=O)[C@H](Cc2ccc(-c3ccccc3)cc2)NC(=O)[C@H](C(C)C)NC(=O)[C@H](Cc2c[nH]c3ccccc23)NC(=O)[C@H](CC(=O)O)NC(=O)[C@H](Cc2ccncc2)NC(=O)[C@H](CN)NC(=O)CSC[C@@H](C(=O)N[C@@H](C)C(N)=O)NC(=O)[C@H]([C@@H](C)O)NC(=O)[C@H](C(C)C)NC1=O [Compound 1542] ({CH2CO}-[Dap][4Pal]DWV[Bip]V[NMeA][dL][Dab]LVTCA-NH2; thioether N-14) | 0.04

Same assay, conditions: Jurkat-hPD-1 cells, PE-labeled PD-L1-Ig 20 nM final; read-out: Jurkat HPDL1 PD1 IC50 (uM) (Method 1)

Row | Compound | IC50 [µM]
2 | CC(C)C[C@@H]1NC(=O)[C@H](Cc2c[nH]c3ccccc23)NC(=O)[C@H](CC(=O)O)NC(=O)[C@H](Cc2ccc(O)cc2)NC(=O)[C@H](Cc2ccccc2)NC(=O)CSC[C@@H](C(=O)N[C@@H](C)C(N)=O)NC(=O)[C@H]([C@@H](C)O)NC(=O)[C@H](CN)NC(=O)[C@H](CC(C)C)NC(=O)[C@H](CC(N)=O)NC(=O)[C@@H](C)NC(=O)[C@H](C)N(C)C(=O)[C@H](C(C)C)NC(=O)[C@H](Cc2ccc(-c3ccccc3)cc2)NC1=O [Compound 1535] ({CH2CO}-FYDWL[Bip]V[NMeA][dA]NL[Dap]TCA-NH2; thioether N-14) | 0.36
3 | CC(C)C[C@@H]1NC(=O)[C@H](Cc2c[nH]c3ccccc23)NC(=O)[C@H](CC(=O)O)NC(=O)[C@H](Cc2ccc(O)cc2)NC(=O)[C@H](Cc2ccccc2)NC(=O)CSC[C@@H](C(=O)N[C@@H](C)C(N)=O)NC(=O)[C@H](CO)NC(=O)[C@H](CCCCN)NC(=O)[C@H](CC(C)C)NC(=O)[C@H](CC(N)=O)NC(=O)[C@@H](CC(C)C)NC(=O)[C@H](C)N(C)C(=O)[C@H](C(C)C)NC(=O)[C@H](Cc2ccc(-c3ccccc3)cc2)NC1=O [Compound 1536] ({CH2CO}-FYDWL[Bip]V[NMeA][dL]NLKSCA-NH2; thioether N-14) | 0.01
4 | CC(C)C[C@@H]1NC(=O)[C@H](Cc2c[nH]c3ccccc23)NC(=O)[C@H](CC(=O)O)NC(=O)[C@H](Cc2ccc(O)cc2)NC(=O)[C@H](Cc2ccccc2)NC(=O)CSC[C@@H](C(=O)N[C@@H](C)C(N)=O)NC(=O)[C@H](CO)NC(=O)[C@H](CCCN)NC(=O)[C@H](CC(C)C)NC(=O)[C@H](CC(N)=O)NC(=O)[C@@H](CC(C)C)NC(=O)[C@H](C)N(C)C(=O)[C@H](C(C)C)NC(=O)[C@H](Cc2ccc(-c3ccccc3)cc2)NC1=O [Compound 1537] ({CH2CO}-FYDWL[Bip]V[NMeA][dL]NL[Orn]SCA-NH2; thioether N-14) | 0.02
5 | CC(C)C[C@@H]1NC(=O)[C@H](Cc2c[nH]c3ccccc23)NC(=O)[C@H](CC(=O)O)NC(=O)[C@H](Cc2ccc(O)cc2)NC(=O)[C@H](Cc2ccccc2)NC(=O)CSC[C@@H](C(=O)N[C@@H](C)C(N)=O)NC(=O)[C@H](CO)NC(=O)[C@H](CCN)NC(=O)[C@H](CC(C)C)NC(=O)[C@H](CC(N)=O)NC(=O)[C@@H](CC(C)C)NC(=O)[C@H](C)N(C)C(=O)[C@H](C(C)C)NC(=O)[C@H](Cc2ccc(-c3ccccc3)cc2)NC1=O [Compound 1538] ({CH2CO}-FYDWL[Bip]V[NMeA][dL]NL[Dab]SCA-NH2; thioether N-14) | 0.1
6 | CC(C)C[C@@H]1NC(=O)[C@H](Cc2c[nH]c3ccccc23)NC(=O)[C@H](Cc2nn[nH]n2)NC(=O)[C@H](Cc2ccc(O)cc2)NC(=O)[C@H](Cc2ccccc2)NC(=O)CSC[C@@H](C(=O)N[C@@H](C)C(N)=O)NC(=O)[C@H](CO)NC(=O)[C@H](C(C)C)NC(=O)[C@H](CC(C)C)NC(=O)[C@H](CC(N)=O)NC(=O)[C@@H](C)NC(=O)[C@H](C)N(C)C(=O)[C@H](C(C)C)NC(=O)[C@H](Cc2ccc(-c3ccccc3)cc2)NC1=O [Compound 1540] ({CH2CO}-FY[Ala(1H-tetrazol-5-yl)]WL[Bip]V[NMeA][dA]NLVSCA-NH2; thioether N-14) | 0.03
7 | CC(C)C[C@@H]1NC(=O)[C@H](Cc2c[nH]c3ccccc23)NC(=O)[C@H](Cc2nn[nH]n2)NC(=O)[C@H](Cc2ccc(O)cc2)NC(=O)[C@H](Cc2ccccc2)NC(=O)CSC[C@@H](C(=O)N[C@@H](C)C(N)=O)NC(=O)[C@H](CO)NC(=O)[C@H](C(C)C)NC(=O)[C@H](CC(C)C)NC(=O)[C@H](CC(N)=O)NC(=O)[C@@H](CC(C)C)NC(=O)[C@H](C)N(C)C(=O)[C@H](C(C)C)NC(=O)[C@H](Cc2ccc(-c3ccccc3)cc2)NC1=O [Compound 1541] ({CH2CO}-FY[Ala(1H-tetrazol-5-yl)]WL[Bip]V[NMeA][dL]NLVSCA-NH2; thioether N-14) | 0.02
8 | Cc1cccc(C[C@@H]2NC(=O)[C@H](CC(=O)O)NC(=O)[C@H](Cc3ccncc3)NC(=O)[C@H](CN)NC(=O)CSC[C@@H](C(=O)N[C@@H](C)C(N)=O)NC(=O)[C@H]([C@@H](C)O)NC(=O)[C@H](C(C)C)NC(=O)[C@H](CC(C)C)NC(=O)[C@H](CCN)NC(=O)[C@@H](CC(C)C)NC(=O)[C@H](C)N(C)C(=O)[C@H](C(C)C)NC(=O)[C@H](Cc3ccc(-c4ccccc4)cc3)NC(=O)[C@H](C(C)C)NC2=O)c1 [Compound 1543] ({CH2CO}-[Dap][4Pal]D[Phe(3-Me)]V[Bip]V[NMeA][dL][Dab]LVTCA-NH2; thioether N-14) | 0.01
9 | CC[C@H](C)[C@@H]1NC(=O)[C@H](Cc2ccc(-c3ccccc3)cc2)NC(=O)[C@H](C(C)C)NC(=O)[C@H](Cc2cccc(C)c2)NC(=O)[C@H](CC(=O)O)NC(=O)[C@H](Cc2ccncc2)NC(=O)[C@H](CN)NC(=O)CSC[C@@H](C(=O)N[C@@H](C)C(N)=O)NC(=O)[C@H]([C@@H](C)O)NC(=O)[C@H](C(C)C)NC(=O)[C@H](CC(C)C)NC(=O)[C@H](CCN)NC(=O)[C@@H](CC(C)C)NC(=O)[C@H](C)N(C)C1=O [Compound 1544] ({CH2CO}-[Dap][4Pal]D[Phe(3-Me)]V[Bip]I[NMeA][dL][Dab]LVTCA-NH2; thioether N-14) | 0.01

The next lines start with the values.

Row | IC50 [µM] | Compound
10 | 0.04 | CC(C)C[C@@H]1NC(=O)[C@H](CCN)NC(=O)[C@@H](CC(C)C)NC(=O)[C@H](C)N(C)C(=O)[C@H](CCCNC(N)=O)NC(=O)[C@H](Cc2ccc(-c3ccccc3)cc2)NC(=O)[C@H](C(C)C)NC(=O)[C@H](Cc2c[nH]c3ccccc23)NC(=O)[C@H](CC(=O)O)NC(=O)[C@H](Cc2ccncc2)NC(=O)[C@H](CN)NC(=O)CSC[C@@H](C(=O)N[C@@H](C)C(N)=O)NC(=O)[C@H]([C@@H](C)O)NC(=O)[C@H](C(C)C)NC1=O [Compound 1545] ({CH2CO}-[Dap][4Pal]DWV[Bip][Cit][NMeA][dL][Dab]LVTCA-NH2; thioether N-14)
11 | 0.02 | Cc1cccc(C[C@@H]2NC(=O)[C@H](CC(=O)O)NC(=O)[C@H](Cc3ccncc3)NC(=O)[C@H](CN)NC(=O)CSC[C@@H](C(=O)N[C@@H](C)C(N)=O)NC(=O)[C@H]([C@@H](C)O)NC(=O)[C@H](C(C)C)NC(=O)[C@H](CC(C)C)NC(=O)[C@H](CCN)NC(=O)[C@@H](CC(C)C)NC(=O)[C@H](C)N(C)C(=O)[C@H](CCCNC(N)=O)NC(=O)[C@H](Cc3ccc(-c4ccccc4)cc3)NC(=O)[C@H](C(C)C)NC2=O)c1 [Compound 1546] ({CH2CO}-[Dap][4Pal]D[Phe(3-Me)]V[Bip][Cit][NMeA][dL][Dab]LVTCA-NH2; thioether N-14)
12 | 0.01 | Cc1cccc(C[C@@H]2NC(=O)[C@H](CC(=O)O)NC(=O)[C@H](CCc3ccncc3)NC(=O)[C@H](CN)NC(=O)CSC[C@@H](C(=O)N[C@@H](C)C(N)=O)NC(=O)[C@H]([C@@H](C)O)NC(=O)[C@H](C(C)C)NC(=O)[C@H](CC(C)C)NC(=O)[C@H](CCN)NC(=O)[C@@H](CC(C)C)NC(=O)[C@H](C)N(C)C(=O)[C@H](CCCNC(N)=O)NC(=O)[C@H](Cc3ccc(-c4ccccc4)cc3)NC(=O)[C@H](C(C)C)NC2=O)c1 [Compound 1547] ({CH2CO}-[Dap][h4Pal]D[Phe(3-Me)]V[Bip][Cit][NMeA][dL][Dab]LVTCA-NH2; thioether N-14)
13 | 0.01 | CC(C)C[C@@H]1NC(=O)[C@H](Cc2c[nH]c3ccccc23)NC(=O)[C@H](CC(=O)O)NC(=O)[C@H](Cc2ccc(C(=O)O)cc2)NC(=O)[C@H](Cc2ccc(OCC(=O)O)cc2)NC(=O)CSC[C@@H](C(=O)NCC(N)=O)NC(=O)[C@H](CO)NC(=O)[C@H](C(C)C)NC(=O)[C@H](CC(C)C)NC(=O)[C@H](CC(N)=O)NC(=O)[C@@H](CC(C)C)NC(=O)[C@H](C)N(C)C(=O)[C@H](C(C)C)NC(=O)[C@H](Cc2ccc(-c3ccccc3)cc2)NC1=O [Compound 1548] ({CH2CO}-Y(Carboxymethyl)[Phe(4-COOH)]DWL[Bip]V[NMeA][dL]NLVSCG-NH2; thioether N-14)
14 | 0.04 | CC(C)C[C@@H]1NC(=O)[C@H](Cc2c[nH]c3ccccc23)NC(=O)[C@H](CC(=O)O)NC(=O)[C@H](Cc2ccncc2)NC(=O)[C@H](CN)NC(=O)CSC[C@@H](C(=O)NCC(N)=O)NC(=O)[C@H](CO)NC(=O)[C@H](C(C)C)NC(=O)[C@H](CC(C)C)NC(=O)[C@H](CC(N)=O)NC(=O)[C@@H](CC(C)C)NC(=O)[C@H](C)N(C)C(=O)[C@H](C(C)C)NC(=O)[C@H](Cc2ccc(-c3ccccc3)cc2)NC1=O [Compound 1549] ({CH2CO}-[Dap][4Pal]DWL[Bip]V[NMeA][dL]NLVSCG-NH2; thioether N-14)
15 | 0.01 | CC(C)C[C@@H]1NC(=O)[C@H](Cc2c[nH]c3ccccc23)NC(=O)[C@H](CC(=O)O)NC(=O)[C@H](Cc2ccc(OCC(=O)O)cc2)NC(=O)[C@H](Cc2ccc(OCC(=O)O)cc2)NC(=O)CSC[C@@H](C(=O)NCC(N)=O)NC(=O)[C@H](CO)NC(=O)[C@H](C(C)C)NC(=O)[C@H](CC(C)C)NC(=O)[C@H](CC(N)=O)NC(=O)[C@@H](CC(C)C)NC(=O)[C@H](C)N(C)C(=O)[C@H](C(C)C)NC(=O)[C@H](Cc2ccc(-c3ccccc3)cc2)NC1=O [Compound 1550] ({CH2CO}-Y(Carboxymethyl)Y(Carboxymethyl)DWL[Bip]V[NMeA][dL]NLVSCG-NH2; thioether N-14)

From US20240409585A1, “MACROCYCLIC IMMUNOMODULATORS” (priority 2021, published 2024)
